Patent US8017612B2, “Piperazine compound and use thereof as a HCV polymerase inhibitor” (priority 2006, dated 2011)
Counter-ions that a name gives are not always drawn.

How the values were obtained:
[1] = target: T1, HCV polymerase (NS5B) type 1a (Hepatitis C virus genotype 1a, UniProt P26664); assay: Assay of enzyme (HCV polymerase) inhibitory activity, type 1a enzyme; format: biochemical, HCV type 1a (cloned from the blood of patients); details: HCV polymerase inhibitory activity (IC50), 1a, type 1a enzyme 1.5 μg/ml, 25° C., 60 min
T1 construct: made in house; host or cells: Escherichia coli (by the 'similar method' of the 1b enzyme)
Summary of the method: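 Patient-derived type 1a NS5B (C-terminal 47-aa deletion, His-tagged, E. coli-expressed) at 1.5 μg/ml was reacted with 5 μg/ml 3′UTR-containing substrate RNA, 50 μM ATP/GTP/CTP, 2 μM UTP plus [3H]UTP, pH 7.5, 25° C for 60 min. TCA-precipitated RNA radioactivity was counted; IC50 from ± compound.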

[2] = target: T2, HCV polymerase (NS5B) type 1b (Hepatitis C virus genotype 1b, UniProt P26663); assay: Assay of enzyme (HCV polymerase) inhibitory activity, type 1b enzyme; format: biochemical, HCV BK strain (type 1b); details: HCV polymerase inhibitory activity (IC50), 1b, type 1b enzyme 0.5 μg/ml, 25° C., 60 min
T2 construct: a region encoding NS5B (J Virol 1991 March, 65(3), 1105-13, 544 amino acids after deletion of 47 amino acids on the C-terminal); 6xHis (C); made in house; host or cells: Escherichia coli
Summary of the method: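 NS5B from HCV BK strain (type 1b), C-terminal 47 aa deleted, C-terminal His6-tagged, E. coli-expressed, 0.5 μg/ml, with ~450 nt substrate RNA carrying the 3′ UTR (polyU, 3′X) at 5 μg/ml. Incubation 60 min at 25 °C with 50 μM ATP/GTP/CTP, 2 μM UTP plus [3H]UTP, pH 7.5 Tris.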

CCCc1ccc(S(=O)(=O)N2CCN(c3nc(C)c(C(=O)O)s3)C[C@@H]2C(=O)NCc2ccc(C(C)C)cc2)s1 [Example 380, 2-[(R)-3-(4-isopropyl-benzylcarbamoyl)-4-(5-propyl-thiophene-2-sulfonyl)-piperazin-1-yl]-4-methyl-thiazole-5-carboxylic acid]
IC50 [1]: < 100 nM | IC50 [2]: < 100 nM

Cc1nc(N2CCN(S(=O)(=O)c3ccc4c(c3)CCCCC4)[C@@H](C(=O)NCc3ccc(C(C)C)cc3)C2)sc1C(=O)O [Example 381, 2-[(R)-3-(4-isopropyl-benzylcarbamoyl)-4-(6,7,8,9-tetrahydro-5H-benzocycloheptene-2-sulfonyl)-piperazin-1-yl]-4-methyl-thiazole-5-carboxylic acid]
IC50 [1]: < 100 nM | IC50 [2]: < 100 nM

CC(C)c1ccc(CNC(=O)[C@H]2CN(c3nc(CCC(=O)O)cs3)CCN2S(=O)(=O)c2ccc(OC(F)(F)F)cc2)cc1 [Example 382, 3-{2-[(R)-3-(4-isopropyl-benzylcarbamoyl)-4-(4-trifluoromethoxy-benzenesulfonyl)-piperazin-1-yl]-thiazol-4-yl}-propionic acid]
IC50 [1]: 100 to 1000 nM | IC50 [2]: 100 to 1000 nM

Cc1nc(N2CCN(S(=O)(=O)c3ccc(OC(F)(F)F)cc3)[C@@H](C(=O)NCc3ccc(C4CC4)cc3)C2)sc1C(=O)O [Example 383, 2-[(R)-3-(4-cyclopropyl-benzylcarbamoyl)-4-(4-trifluoromethoxy-benzenesulfonyl)-piperazin-1-yl]-4-methyl-thiazole-5-carboxylic acid]
IC50 [1]: < 100 nM | IC50 [2]: < 100 nM

CC(C)c1ccc(CNC(=O)[C@H]2CN(C(=O)CNCC(=O)O)CCN2S(=O)(=O)c2ccc(C(F)(F)F)cc2)cc1 [Example 384, {2-[(R)-3-(4-isopropyl-benzylcarbamoyl)-4-(4-trifluoromethyl-benzenesulfonyl)-piperazin-1-yl]-2-oxo-ethylamino}-acetic acid hydrochloride]
IC50 [1]: 100 to 1000 nM | IC50 [2]: 100 to 1000 nM

CC(C)c1ccc(CNC(=O)[C@H]2CN(c3cnc(C(=O)O)cn3)CCN2S(=O)(=O)c2ccc(OC(F)(F)F)cc2)cc1 [Example 385, (R)-3-(4-isopropyl-benzylcarbamoyl)-4-(4-trifluoromethoxy-benzenesulfonyl)-3,4,5,6-tetrahydro-2H-[1,2′]bipyrazinyl-5′-carboxylic acid]
IC50 [1]: < 100 nM | IC50 [2]: < 100 nM

O=C(O)c1cnc(N2CCN(S(=O)(=O)c3ccc(OC(F)(F)F)cc3)[C@@H](C(=O)NCc3ccc(OC(F)(F)F)cc3)C2)cn1 [Example 386, (R)-4-(4-trifluoromethoxy-benzenesulfonyl)-3-(4-trifluoromethoxy-benzylcarbamoyl)-3,4,5,6-tetrahydro-2H-[1,2′]bipyrazinyl-5′-carboxylic acid]
IC50 [1]: < 100 nM | IC50 [2]: < 100 nM

Cc1nc(N2CCN(S(=O)(=O)c3ccc(OC(F)(F)F)cc3)[C@@H](C(=O)NCc3ccc(N(C)C)nc3)C2)sc1C(=O)O [Example 387, 2-[(R)-3-[(6-dimethylamino-pyridin-3-ylmethyl)-carbamoyl]-4-(4-trifluoromethoxy-benzenesulfonyl)-piperazin-1-yl]-4-methyl-thiazole-5-carboxylic acid]
IC50 [1]: < 100 nM | IC50 [2]: < 100 nM

CCCc1ccc(CNC(=O)[C@H]2CN(c3nc(C)c(C(=O)O)s3)CCN2S(=O)(=O)c2ccc(OC(F)(F)F)cc2)cn1 [Example 388, 4-methyl-2-[(R)-3-[(6-propyl-pyridin-3-ylmethyl)-carbamoyl]-4-(4-trifluoromethoxy-benzenesulfonyl)-piperazin-1-yl]-thiazole-5-carboxylic acid]
IC50 [1]: 100 to 1000 nM | IC50 [2]: < 100 nM

Cc1nc(N2CCN(S(=O)(=O)c3ccc(OC(F)(F)F)cc3)[C@@H](C(=O)NCc3ccc(N4CCC4)nc3)C2)sc1C(=O)O [Example 389, 2-[(R)-3-[(6-azetidin-1-yl-pyridin-3-ylmethyl)-carbamoyl]-4-(4-trifluoromethoxy-benzenesulfonyl)-piperazin-1-yl]-4-methyl-thiazole-5-carboxylic acid]
IC50 [1]: 100 to 1000 nM | IC50 [2]: < 100 nM

Cc1nc(N2CCN(S(=O)(=O)c3ccc(OC(F)(F)F)cc3)[C@@H](C(=O)NCc3ccc(N4CCCC4)nc3)C2)sc1C(=O)O [Example 390, 4-methyl-2-[(R)-3-[(6-pyrrolidin-1-yl-pyridin-3-ylmethyl)-carbamoyl]-4-(4-trifluoromethoxy-benzenesulfonyl)-piperazin-1-yl]-thiazole-5-carboxylic acid]
IC50 [1]: 100 to 1000 nM | IC50 [2]: < 100 nM

CC(C)c1ccc(CNC(=O)[C@H]2CN(C(=O)CNCCC(=O)O)CCN2S(=O)(=O)c2ccc(C(F)(F)F)cc2)cc1 [Example 391, 3-{2-[(R)-3-(4-isopropyl-benzylcarbamoyl)-4-(4-trifluoromethyl-benzenesulfonyl)-piperazin-1-yl]-2-oxo-ethylamino}-propionic acid hydrochloride]
IC50 [1]: 100 to 1000 nM | IC50 [2]: 100 to 1000 nM

COc1ccc(CCNC(=O)[C@H]2CN(C(C)=O)CCN2S(=O)(=O)c2ccc(C(C)C)cc2)cc1 [Example 392, (R)-4-acetyl-1-(4-isopropyl-benzenesulfonyl)-piperazine-2-carboxylic acid [2-(4-methoxy-phenyl)-ethyl]-amide]
IC50 [1]: > 1000 nM | IC50 [2]: > 1000 nM

CC(=O)N1CCN(S(=O)(=O)c2ccc(C(C)C)cc2)[C@@H](C(=O)NCCc2ccc(C(=O)O)cc2)C1 [Example 393, 4-(2-{[(R)-4-acetyl-1-(4-isopropyl-benzenesulfonyl)-piperazine-2-carbonyl]-amino}-ethyl)-benzoic acid]
IC50 [1]: > 1000 nM | IC50 [2]: > 1000 nM

CCCc1ccc(S(=O)(=O)N2CCN(c3nc(COC)c(C(=O)O)s3)C[C@@H]2C(=O)NCc2ccc(C(C)C)cc2)cc1 [Example 394, 2-[(R)-3-(4-isopropyl-benzylcarbamoyl)-4-(4-propyl-benzenesulfonyl)-piperazin-1-yl]-4-methoxymethyl-thiazole-5-carboxylic acid]
IC50 [1]: < 100 nM | IC50 [2]: < 100 nM

CC(=O)N1CCN(S(=O)(=O)c2ccc(C(C)C)cc2)[C@@H](C(=O)NCCc2ccncc2)C1 [Example 395, (R)-4-acetyl-1-(4-isopropyl-benzenesulfonyl)-piperazine-2-carboxylic acid (2-pyridin-4-yl-ethyl)-amide]
IC50 [1]: > 1000 nM | IC50 [2]: > 1000 nM

CC(=O)N1CCN(S(=O)(=O)c2ccc(C(C)C)cc2)[C@@H](C(=O)NCCc2ccccn2)C1 [Example 396, (R)-4-acetyl-1-(4-isopropyl-benzenesulfonyl)-piperazine-2-carboxylic acid (2-pyridin-2-yl-ethyl)-amide]
IC50 [1]: > 1000 nM | IC50 [2]: > 1000 nM

CC(=O)N1CCN(S(=O)(=O)c2ccc(C(C)C)cc2)[C@@H](C(=O)NCCc2cccnc2)C1 [Example 397, (R)-4-acetyl-1-(4-isopropyl-benzenesulfonyl)-piperazine-2-carboxylic acid (2-pyridin-3-yl-ethyl)-amide]
IC50 [1]: > 1000 nM | IC50 [2]: > 1000 nM

Cc1nc(N2CCN(S(=O)(=O)c3ccc(OC(F)(F)F)cc3)[C@@H](C(=O)NCc3ccc(N4CCC4)cc3)C2)sc1C(=O)O [Example 398, 2-[(R)-3-(4-azetidin-1-yl-benzylcarbamoyl)-4-(4-trifluoromethoxy-benzenesulfonyl)-piperazin-1-yl]-4-methyl-thiazole-5-carboxylic acid]
IC50 [1]: 100 to 1000 nM | IC50 [2]: < 100 nM
